Test results reported in patent US5104859A, “Continuous administration of adenosine to reduce pulmonary vascular resistance” (priority 1990, dated 1992).
Entries after “also recorded” stand apart in the source; their conditions may differ.

Legend:
[1] = test system: mean arterial blood pressure; settings: dogs, cited from earlier work
[2] = test system: pulmonary vascular resistance
[3] = design: species or system human; settings: in vivo
Protocol: (§1) The mean hypotensive period was 32±8 min.

[4] = test system: oxygen consumption and lactate; test: Oxygen contents, oxygen consumption and lactate during controlled hypotension; format: in vivo, human
Protocol: The correct position was verified by x-ray.
The hemoglobin concentration was determined spectrophotometrically. […] Scand., 120: 171-76 (1984). […] (London), 313: 351-67 (1981). […] Arterial levels of dipyridamole were determined by HPLC. J. Chromatogr., 162: 98-103 (1979). […] Scand. Clin. Lab. Invest., 27:15-19 (1971).
as §1
Oxygen content was derived from the formula SO2*× 1.34×Hb+PO2× […]. Foex et al., Br. J. Anesth., 42: 803-4 (1970). The arteriovenous oxygen content difference (AVDO2) was determined and used to calculate total oxygen consumption (VO2) as the product of AVDO2 and QT. *SO2 =Oxygen saturation.
Oxygen contents, consumptions and lactate concentrations in nine patients before, during and 30 minutes after controlled hypotension are summarized in Table III.

cardiovascular system [5] = settings: bolus about 37.5 to 450 micrograms/kg; cited from earlier work
cardiovascular system [6] = test: General activity profile of adenosine by continuous infusion; settings: for tachyphylaxis / rebound hypertension (words): hypotension
[7] = test system: atrio-ventricular (A-V) node; test: Atrio-ventricular conductance / heart block; format: in vivo, human
Source text: In accordance with this invention, adenosine may be administered to human patients by continuous intravenous infusion to provide significant vasodilation and without significant heart blockage under two conditions. First, the heart blocking action of adenosine is not detected during anesthesia when the rate of administration is 0.35 milligrams of adenosine per kilogram of body weight per minute or less. Second, the heart blocking action of adenosine is not detected, even in conscious patients, at rates of administration of about 0.10 milligram of adenosine per kilogram of body weight per minute or less.

myocardial blood flow = settings: 0.05 to about 0.1 mg/kg/min
Source text: Patients requiring abdominal vascular surgery, such as surgery for an aortic aneurysm, frequently also suffer from ischemic heart disease, or insufficient blood flow to the heart tissue, which may present undesirable complications in such surgery.
For such application, the rate of adenosine administration should be such that there is no more than a 10-20 per cent reduction in blood pressure.

[8] = Plasma half-life of adenosine; format: in vivo
[9] = Plasma adenosine and metabolite concentrations during cardiopulmonary bypass (HPLC); settings: in vivo; for concentration: human, iv
Protocol: In six cases the plasma adenosine levels were determined by high performance liquid chromatography (HPLC) (Fredholm and Sollevi, J. Physiol. (London), 313: 351-67 (1981) in arterial and in venous (venous lines to the oxygenator) blood. The adenosine metabolites inosine, hypoxanthine and uric acid were also determined by HPLC. The samples were collected as previously described (Sollevi, Acta. Physiol. Scand., 121: 165-72 (1984) at the intervals of 10, 20, 40 and 80 minutes during CPB and 20 minutes after CPB.
Statistical significance (controls v. adenosine group) was determinted with Student's t-test for unpaired data. For significance within the groups the Wilcoxon Rank Sum test was used. p […] 0.05 was regarded as significant.

blood pressure = test: Control of hypertensive crisis during surgery; format: in vivo, human; settings: about 0.1 to about 0.2 mg/kg/min
Protocol: Continuous infusion of adenosine can also be employed to control hypertensive crises occurring during surgery. Such crises can occur, for example, as a result of release of catecholamines during surgery on pheochromocytoma--a tumor characterized by the presence of catecholamine--which can cause pulmonary edema and death. At present, this situation is treated prophylactically by pre-administration of alpha- and beta-adrenoceptor blockers or vasodilators, but the effect is often insufficient. […] Amounts of adenosine which are effective in controlling such hypertensive crises will depend on the degree of hypertension. However, as a general rule they are about half of the amounts found useful for controlled hypotension, i.e., in the range of from about 0.1 to about 0.2 mg adenosine per kilogram of body weight per minute.

[10] = test system: pulmonary vascular resistance; settings: systemic vasodilator doses
[11] = Control 2, 30 min after hypotension

For `Nc1ncnc2c1ncn2[C@@H]1O[C@H](CO)[C@@H](O)[C@H]1O` [adenosine], the “mean arterial pressure with adenosine after dipyridamole” value ([1]; 50 ug/kg/minute adenosine) is given as 40 mm/Hg, the “adenosine dose required for induction of hypotension without dipyridamole” value ([1]; pilot study, as much as) is given as 5 to 10 mg/kg/min and the “pulmonary vascular resistance in induced pulmonary hypertension” value ([2]; intravenous, hypoxic ventilation during anesthesia) is given as “marked reduction”. The “systemic vasodilator effects, cardiac output, arterial oxygen at doses lowering pulmonary resistance” value ([2]; pig, in vivo) was “commonly do not result in detectable vasodilator effects or effects on cardiac output or arterial oxygen function”, the “ECG the day after the operation” value [3] was “unchanged” and the “decrease in AVDO2” value [4] was 37±5%. For the same compound, the “decrease in cerebral AVDO2” value [4] was 37±13%, the “decrease of VO2” value [4] was 13±4% and the “Arterial lactate concentration (La)” value [4, 11] was 1.82 ± 0.20 mmol per liter. For the same compound, the “Arterial oxygen tension (PaO2)” value [4, 11] was 93.0 ± 5.2 mmHg, the “Jugular arteriovenous lactate content difference (AVDj La)” value [4, 11] was -0.06 ± 0.04 mmol per liter and the “Jugular arteriovenous oxygen content difference (AVDj O2)” value [4, 11] was 74.9 ± 7.7 ml. per liter. The “Total arteriovenous oxygen content difference (AVDT O2)” value [4, 11] was 46.8 ± 3.2 ml per liter, the “Total oxygen consumption (VT O2)” value [4, 11] was 235 ± 16 ml per mm and the “arterial lactate concentration” value ([4]; during / after hypotension) was “not affected; also recorded: minor increase”. The “Arterial lactate concentration (La)” value ([4]; during adenosine) was 1.73 ± 0.20 mmol per liter, the “Arterial oxygen tension (PaO2)” value ([4]; during adenosine) was 97.5 ± 9.0 mmHg and the “Jugular arteriovenous lactate content difference (AVDj La)” value ([4]; during adenosine) was -0.05 ± 0.05 mmol per liter. The “Jugular arteriovenous oxygen content difference (AVDj O2)” value ([4]; during adenosine) was 58.1 ± 14.1 ml. per liter, the “Total arteriovenous oxygen content difference (AVDT O2)” value ([4]; during adenosine) was 29.3 ± 2.5 ml per liter and the “Total oxygen consumption (VT O2)” value ([4]; during adenosine) was 193 ± 16 ml per mm. For the same compound, the “arterial oxygen tension” value ([4]; during hypotension) was “remained unchanged”, the “arterio-jugular lactate content difference” value ([4]; during hypotension) was “unaltered” and the “vasodilating action of injectable bolus” value (cardiovascular system [5]) was “little detectable vasodilating action”. For the same compound, the “toxicity” value (cardiovascular system [6]; amounts used in accordance with the invention) was “essentially non-toxic”, the “after-load and pre-load” value (cardiovascular system [6]; continuous infusion) was “little or no effect on cardiac pre-load; also recorded: reduce after-load, without having significant effect on pre-load” and the “tachyphylaxis / rebound hypertension (words)” value (cardiovascular system [6]) was “does not cause tachyphylaxis; also recorded: rebound hypertension is avoided”. The “tachyphylaxis / rebound hypertension (words)” value (cardiovascular system [6]; listed as Adenosine) was “without the occurrence of significant tachyphylaxis”, the “heart rate on after-load reduction” value (cardiovascular system [6]; in vivo) was “without significantly increasing heart rate” and the “heart block in conscious patients” value ([7]; about 0.10 mg/kg/min or less) was “not detected”. The “heart block / blockage of A-V conductance during anesthesia” value ([7]; anesthesia, 0.35 mg/kg/min or less, 0.35 mg/kg) was “not detected; also recorded: does not occur; also recorded: no blockage of atrio-ventricular conductance is observed”, the “A-V activity at vasodilating doses” value ([7]; continuous infusion) was “significant useful vasodilating action at dosages below those at which it has significant A-V activity” and the “increase of cardiac output” value (myocardial blood flow) was 10 to 20%. For the same compound, the “reduction of blood pressure” value (myocardial blood flow) was 10 to 20 per cent, the oxygen consumption (myocardial blood flow; words) was “without change in oxygen consumption” and the half-life [8] was under 10 s. The concentration [9] was 2000 to 10000 nM, the concentration ([9]; 20 min) was 400 ± 100 nM and the Arterial concentration [9] was 0.3 ± 0.1 µM. The “arterial levels” value [9] was “approximately doubled”, the “blood pressure in catecholamine-induced hypertensive crisis” value (blood pressure) was “rapidly restore blood pressure to normal” and the “normal pulmonary vascular resistance” value [10] was “negligible or at most, minor effect”.
